# Assay results from ChEMBL document CHEMBL1201862, “PubChem BioAssay data set” (2004).
#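 The compound was tested at five concentrations on cells cultured in 96-well plates, with a 48-hour exposure period. GI50 is the concentration that inhibits growth by half.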 The source made the active and inactive calls. No stated cut-off is given here; in the data, active = GI50 up to about 1.1 µM and inactive = higher.
# Legend:
# Experiment in all cases: growth of human tumour cells (NCI), 48 h
# 786-0 = test system: 786-0
# A498 = test system: A498
# ACHN = test system: ACHN
# BT-549 = test system: BT-549
# CAKI-1 = test system: CAKI-1
# CCRF-CEM = test system: CCRF-CEM
# COLO 205 = test system: COLO 205
# DU-145 = test system: DU-145
# EKVX = test system: EKVX
# HCT-116 = test system: HCT-116
# HCT-15 = test system: HCT-15
# HL-60 = test system: HL-60
# HOP-62 = test system: HOP-62
# HT-29 = test system: HT-29
# Hs-578T = test system: Hs-578T
# IGROV-1 = test system: IGROV-1
# K562 = test system: K562
# KM12 = test system: KM12
# LOX IMVI = test system: LOX IMVI
# M14 = test system: M14
# MCF7 = test system: MCF7
# MDA-MB-231 = test system: MDA-MB-231
# MDA-MB-435 = test system: MDA-MB-435
# MDA-N = test system: MDA-N
# MOLT-4 = test system: MOLT-4
# Malme-3M = test system: Malme-3M
# NCI-H226 = test system: NCI-H226
# NCI-H23 = test system: NCI-H23
# NCI-H460 = test system: NCI-H460
# NCI/ADR-RES = test system: NCI/ADR-RES
# OVCAR-3 = test system: OVCAR-3
# OVCAR-5 = test system: OVCAR-5
# OVCAR-8 = test system: OVCAR-8
# PC-3 = test system: PC-3
# RPMI-8226 = test system: RPMI-8226
# RXF 393 = test system: RXF 393
# SF-268 = test system: SF-268
# SF-295 = test system: SF-295
# SF-539 = test system: SF-539
# SK-MEL-28 = test system: SK-MEL-28
# SK-MEL-2 = test system: SK-MEL-2
# SK-MEL-5 = test system: SK-MEL-5
# SK-OV-3 = test system: SK-OV-3
# SN12C = test system: SN12C
# SNB-19 = test system: SNB-19
# SR = test system: SR
# SW-620 = test system: SW-620
# TK-10 = test system: TK-10
# U-251 = test system: U-251
# UACC-257 = test system: UACC-257
# UACC-62 = test system: UACC-62
# HOP-92 = test system: HOP-92
# NCI-H522 = test system: NCI-H522
# OVCAR-4 = test system: OVCAR-4
# SNB-75 = test system: SNB-75
# T47D = test system: T47D
smiles,measurement,setting,value
S=C(c1c[nH]c2ccccc12)N1CCCCC1,GI50,786-0,> 100 µM (inactive)
same,GI50,A498,> 100 µM (inactive)
same,GI50,ACHN,> 100 µM (inactive)
same,GI50,BT-549,92.9 µM (inactive)
same,GI50,CAKI-1,> 100 µM (inactive)
same,GI50,CCRF-CEM,89.9 µM (inactive)
same,GI50,COLO 205,> 100 µM (inactive)
same,GI50,DU-145,> 100 µM (inactive)
same,GI50,EKVX,85.9 µM (inactive)
same,GI50,HCT-116,95.1 µM (inactive)
same,GI50,HCT-15,82.2 µM
same,GI50,HL-60,70.6 µM (inactive)
same,GI50,HOP-62,> 100 µM (inactive)
same,GI50,HT-29,> 100 µM (inactive)
same,GI50,Hs-578T,> 100 µM (inactive)
same,GI50,IGROV-1,67.9 µM (inactive)
same,GI50,K562,72.4 µM (inactive)
same,GI50,KM12,> 100 µM (inactive)
same,GI50,LOX IMVI,> 100 µM (inactive)
same,GI50,M14,> 100 µM (inactive)
same,GI50,MCF7,84.1 µM (inactive)
same,GI50,MDA-MB-231,> 100 µM (inactive)
same,GI50,MDA-MB-435,85.5 µM (inactive)
same,GI50,MDA-N,> 100 µM (inactive)
same,GI50,MOLT-4,58.1 µM (inactive)
same,GI50,Malme-3M,> 100 µM (inactive)
same,GI50,NCI-H226,> 100 µM (inactive)
same,GI50,NCI-H23,> 100 µM (inactive)
same,GI50,NCI-H460,> 100 µM (inactive)
same,GI50,NCI/ADR-RES,66.5 µM (inactive)
same,GI50,OVCAR-3,> 100 µM (inactive)
same,GI50,OVCAR-5,> 100 µM (inactive)
same,GI50,OVCAR-8,> 100 µM (inactive)
same,GI50,PC-3,49.8 µM (inactive)
same,GI50,RPMI-8226,36.9 µM (inactive)
same,GI50,RXF 393,62.5 µM (inactive)
same,GI50,SF-268,> 100 µM (inactive)
same,GI50,SF-295,62.1 µM (inactive)
same,GI50,SF-539,> 100 µM (inactive)
same,GI50,SK-MEL-28,> 100 µM (inactive)
same,GI50,SK-MEL-2,> 100 µM (inactive)
same,GI50,SK-MEL-5,40 µM (inactive)
same,GI50,SK-OV-3,> 100 µM (inactive)
same,GI50,SN12C,> 100 µM (inactive)
same,GI50,SNB-19,> 100 µM (inactive)
same,GI50,SR,> 100 µM (inactive)
same,GI50,SW-620,> 100 µM (inactive)
same,GI50,TK-10,> 100 µM (inactive)
same,GI50,U-251,64.9 µM (inactive)
same,GI50,UACC-257,> 100 µM (inactive)
same,GI50,UACC-62,> 100 µM (inactive)
N#CC(C(=O)c1ccccc1F)c1nc2cc(C(F)(F)F)ccc2s1 (stereo not given),GI50,786-0,19.6 µM (inactive)
same,GI50,A498,14 µM (inactive)
same,GI50,ACHN,27.5 µM (inactive)
same,GI50,BT-549,23 µM (inactive)
same,GI50,CAKI-1,32.3 µM (inactive)
same,GI50,COLO 205,20.9 µM (inactive)
same,GI50,DU-145,28.3 µM (inactive)
same,GI50,EKVX,22.4 µM (inactive)
same,GI50,HCT-116,19.2 µM (inactive)
same,GI50,HCT-15,20.1 µM
same,GI50,HOP-62,18.7 µM (inactive)
same,GI50,HOP-92,19.1 µM (inactive)
same,GI50,HT-29,17.6 µM (inactive)
same,GI50,IGROV-1,36.3 µM (inactive)
same,GI50,KM12,32.5 µM (inactive)
same,GI50,LOX IMVI,17.6 µM (inactive)
same,GI50,MDA-MB-231,31 µM (inactive)
same,GI50,MDA-MB-435,25.8 µM (inactive)
same,GI50,MOLT-4,31.1 µM (inactive)
same,GI50,Malme-3M,19.6 µM (inactive)
same,GI50,NCI-H226,33.2 µM (inactive)
same,GI50,NCI-H23,19.7 µM (inactive)
same,GI50,NCI-H460,30.1 µM (inactive)
same,GI50,NCI-H522,17.3 µM (inactive)
same,GI50,NCI/ADR-RES,19.7 µM (inactive)
same,GI50,OVCAR-3,16.6 µM (inactive)
same,GI50,OVCAR-4,31.3 µM (inactive)
same,GI50,OVCAR-5,21.2 µM (inactive)
same,GI50,OVCAR-8,31.6 µM (inactive)
same,GI50,RPMI-8226,22 µM (inactive)
same,GI50,RXF 393,24 µM (inactive)
same,GI50,SF-268,30.3 µM (inactive)
same,GI50,SF-295,14.3 µM (inactive)
same,GI50,SF-539,33.4 µM (inactive)
same,GI50,SK-MEL-28,29.4 µM (inactive)
same,GI50,SK-MEL-5,20.8 µM (inactive)
same,GI50,SK-OV-3,27 µM (inactive)
same,GI50,SN12C,23.1 µM (inactive)
same,GI50,SNB-75,14.6 µM (inactive)
same,GI50,SW-620,30.6 µM (inactive)
same,GI50,T47D,25.9 µM (inactive)
same,GI50,TK-10,30.8 µM (inactive)
same,GI50,U-251,26.7 µM (inactive)
same,GI50,UACC-257,27.4 µM (inactive)
